The test system of one assay is HCT-116. Nature of the assay: cells. The conditions noted are these: Homo sapiens, HCT-116, 72 h.
For a further assay, the system named is HepG2. The assay can be described thus: cells. Conditions: Homo sapiens, HepG2, 72 h.
In another assay the test system is MCF7. The assay can be described thus: cells. Conditions: Homo sapiens, MCF7, 72 h.
In another assay the test system is HeLa. Nature of the assay: Antiproliferative activity against human HeLa cells after 72 hrs by MTT assay. Type of assay: functional, cell-based. For orientation: Tetrazolium assays rely on reduction of a dye to a coloured formazan, in cell work by metabolically active cells.
The subject of the next assay is PC-3. Nature of the assay: Antiproliferative activity against human PC-3 cells after 72 hrs by MTT assay. Conditions: PC-3, 72 h. Type of assay: functional, cell-based.

What is called IC50 is the concentration that gives 50% inhibition.

Description for HCT-116: Antiproliferative activity against human HCT-116 cells after 72 hrs by MTT assay

With `O=C(NCCCc1ccccc1)c1csc(NC(=S)Nc2ccc(Cl)cc2)n1`, the IC50 in the assay with HCT-116 is 36.6 µM; in the assay on HepG2 it was 53.1 µM; in the assay on MCF7, 45.1 µM; with HeLa, 32.2 µM; in the assay with PC-3, 42.4 µM.
As for `CCCC(=O)NNC(=O)c1csc2ncc(-c3ccc(OC)cc3)n12`, the 50% inhibitory concentration (IC50) with HCT-116 came out at 59.1 µM; in the assay with HepG2 it was 38 µM; with MCF7, 32.8 µM; in the assay on HeLa, 43.3 µM; in the assay on PC-3, 66.4 µM.
For `CCCC(=O)NNC(=O)c1csc2nc(CN3CCOCC3)c(-c3ccc(OC)cc3)n12`, the IC50 came to 68.7 µM in the assay with HCT-116; 81.2 µM in the assay on HepG2; 72.4 µM in the assay on MCF7; 53.7 µM in the assay on HeLa; 88.5 µM with PC-3.
Take `CC(=O)NNC(=O)c1csc2ncc(-c3ccc(C)cc3)n12`: the half-maximal inhibitory concentration (IC50) in the assay with HCT-116 was 71.8 µM; with HepG2 it was 63.6 µM; with MCF7 it was 57.3 µM; in the assay on HeLa, 74.2 µM; with PC-3 it was 92.7 µM.
As for `CCCC(=O)NNC(=O)c1csc2ncc(-c3ccc(Br)cc3)n12`, the IC50 in the assay with HCT-116 amounted to 50.3 µM; in the assay on HepG2 it was 33.6 µM; with MCF7, 27.5 µM; with HeLa, 31.9 µM; with PC-3, 58.5 µM.
For `CCOC(=O)c1csc2nc(CN3CCOCC3)c(-c3ccc(OC)cc3)n12`, the IC50 in the assay with HCT-116 stood at 25.8 µM; in the assay with HepG2 it was 19.8 µM; in the assay with MCF7, 13.9 µM; in the assay with HeLa it was 16.4 µM; in the assay on PC-3, 22.6 µM.
As for `CCOC(=O)c1csc2nc(CN3CCOCC3)c(-c3ccc(C)cc3)n12`, the IC50 with HCT-116 worked out at 32.6 µM; with HepG2, 39 µM; with MCF7 it was 43.6 µM; with HeLa, 24.8 µM; in the assay with PC-3, 47.1 µM.
As to `COc1ccc(NC(=S)Nc2nc(C(=O)NCCc3ccccc3)cs2)cc1`, the half-inhibitory concentration (IC50) in the assay on HCT-116 turned out to be 8.13 µM; in the assay with HepG2, 19.5 µM; in the assay on MCF7 it was 10.6 µM; with HeLa it was 14.8 µM; in the assay with PC-3, 25.1 µM.
Take `COc1ccc(NC(=S)Nc2nc(C(=O)NCCCc3ccccc3)cs2)cc1`: the concentration for half-maximal inhibition (IC50) came out at 44.8 µM with HCT-116; 71.3 µM with HepG2; 63.8 µM in the assay with MCF7; 57.5 µM in the assay with HeLa; 74.5 µM in the assay on PC-3.
Regarding `CCC(=O)NNC(=O)c1csc2nc(CN3CCOCC3)c(-c3ccc(Br)cc3)n12`, the 50% inhibitory concentration (IC50) in the assay on HCT-116 amounted to 34.1 µM; in the assay with HepG2 it was 31.2 µM; in the assay with MCF7 it was 25.4 µM; with HeLa, 27 µM; in the assay with PC-3 it was 42.7 µM.
Regarding `CNC(=O)c1cc(Oc2ccc(NC(=O)Nc3ccc(Cl)c(C(F)(F)F)c3)cc2)ccn1` [SORAFENIB], the IC50 in the assay on PC-3 came out at 11.5 µM.
For the compound `CCC(=O)NNC(=O)c1csc2nc(CN3CCOCC3)c(-c3ccc(OC)cc3)n12`, the half-maximal inhibitory concentration (IC50) with HCT-116 stood at 59.3 µM; with HepG2, 55.9 µM; in the assay on MCF7, 64.1 µM; in the assay on HeLa, 44.2 µM; with PC-3 it was 73.9 µM.
Regarding `CCCC(=O)NNC(=O)c1csc2nc(CN3CCOCC3)c(-c3ccc(C)cc3)n12`, the IC50 was 77.5 µM in the assay with HCT-116; 92.4 µM with HepG2; 89.3 µM in the assay with MCF7; 67.9 µM with HeLa; greater than 100 µM in the assay with PC-3.
For `CCOC(=O)c1csc2nc(CN3CCN(C)CC3)c(-c3ccc(Br)cc3)n12`, in that order: 93.6 µM, 82.7 µM, 68.5 µM, 55.4 µM and 85 µM.
For `COc1ccc(-c2cnc3scc(C(=O)NNC(C)=O)n23)cc1` the same measures were 17 µM, 11.8 µM, 8.36 µM, 17.9 µM and 28.3 µM.
For `CCC(=O)NNC(=O)c1csc2ncc(-c3ccc(OC)cc3)n12` the same measures were 64.3 µM, 45.8 µM, 53.2 µM, 56.2 µM and 79.8 µM.
Take `CCOC(=O)c1csc2nc(CN3CCN(Cc4ccccc4)CC3)c(-c3ccc(Br)cc3)n12`: the half-maximal inhibitory concentration (IC50) in the assay on HCT-116 was 37.2 µM; in the assay on HepG2, 47.3 µM; with MCF7, 51.4 µM; with HeLa, 29.5 µM; in the assay on PC-3, 56.4 µM.
For the compound `CC(=O)NNC(=O)c1csc2nc(CN3CCOCC3)c(-c3ccc(C)cc3)n12`, the IC50 with HCT-116 came to 54.6 µM; with HepG2, 43 µM; with MCF7, 50.8 µM; in the assay with HeLa it was 35.3 µM; in the assay on PC-3, 61.3 µM.
For `COc1ccc(-c2c(CN3CCCCC3)nc3scc(C(=O)O)n23)cc1` the same measures were 84.6 µM, 75 µM, 62.9 µM, 47.4 µM and 73.1 µM.
In the case of `COc1ccc(NC(=S)Nc2nc(C(=O)NCc3ccccc3)cs2)cc1`, the IC50 in the assay on HCT-116 was 18.2 µM; in the assay on HepG2, 28.1 µM; with MCF7, 24.6 µM; with HeLa, 22.9 µM; in the assay on PC-3, 39.3 µM.
With `CCCC(=O)NNC(=O)c1csc2ncc(-c3ccc(C)cc3)n12`, the IC50 turned out to be 34.5 µM in the assay on HCT-116; 26.8 µM in the assay on HepG2; 41.7 µM with MCF7; 45.6 µM with HeLa; 53.5 µM in the assay on PC-3.
Take `CC(=O)NNC(=O)c1csc2nc(CN3CCOCC3)c(-c3ccc(Br)cc3)n12`: the IC50 in the assay on HCT-116 came to 22 µM; in the assay with HepG2 it was 14.1 µM; with MCF7, 19.1 µM; with HeLa, 13.6 µM; in the assay on PC-3 it was 29.3 µM.
As to `CCOC(=O)c1csc2nc(CN3CCN(Cc4ccccc4)CC3)c(-c3ccc(C)cc3)n12`, the IC50 with HCT-116 was 47.8 µM; in the assay on HepG2, 88.2 µM; with MCF7, 29.1 µM; in the assay with HeLa, 38.8 µM; in the assay on PC-3 it was greater than 100 µM.
With `CCC(=O)NNC(=O)c1csc2ncc(-c3ccc(Br)cc3)n12`, the IC50 was 25.3 µM in the assay on HCT-116; 19.2 µM with HepG2; 15 µM in the assay with MCF7; 23.1 µM in the assay with HeLa; 43.7 µM in the assay on PC-3.
On to `CCOC(=O)c1csc2nc(CN3CCOCC3)c(-c3ccc(Br)cc3)n12`, for which the IC50 with HCT-116 is 28.5 µM; in the assay with HepG2, 32.5 µM; with MCF7 it was 24.6 µM; with HeLa it was 20.8 µM; in the assay with PC-3, 35.2 µM.
For `CCOC(=O)c1csc2nc(CN3CCN(Cc4ccccc4)CC3)c(-c3ccc(OC)cc3)n12`, the IC50 came to 19.6 µM in the assay with HCT-116; 26.4 µM in the assay on HepG2; 17.1 µM in the assay with MCF7; 9.94 µM in the assay on HeLa; 29.4 µM in the assay on PC-3.
`O=C(O)c1csc2nc(CN3CCCCC3)c(-c3ccc(Br)cc3)n12`: the concentration for half-maximal inhibition (IC50) in the assay with HCT-116 was greater than 100 µM; in the assay with HepG2, greater than 100 µM; in the assay on MCF7 it was 87.5 µM; in the assay on HeLa it was 76.6 µM; in the assay on PC-3, greater than 100 µM.
With `CN(Cc1cnc2nc(N)nc(N)c2n1)c1ccc(C(=O)N[C@@H](CCC(=O)O)C(=O)O)cc1` [METHOTREXATE], the IC50 turned out to be 9.25 µM with HCT-116; 21.9 µM in the assay with HepG2; 25.3 µM in the assay on MCF7; 13.7 µM with HeLa; 28.8 µM in the assay on PC-3.
With `CCC(=O)NNC(=O)c1csc2nc(CN3CCOCC3)c(-c3ccc(C)cc3)n12`, the IC50 in the assay with HCT-116 came to 64.5 µM; with HepG2 it was 69.2 µM; in the assay on MCF7 it was 58.2 µM; in the assay on HeLa it was 48.4 µM; in the assay with PC-3, 79.1 µM.
Consider `CCOC(=O)c1csc2nc(CN3CCN(C)CC3)c(-c3ccc(C)cc3)n12`, for which the half-inhibitory concentration (IC50) turned out to be 61 µM with HCT-116; 53.6 µM in the assay with HepG2; 58.3 µM in the assay with MCF7; 43.9 µM in the assay on HeLa; 65 µM in the assay on PC-3.
`COc1ccc(-c2c(CN3CCOCC3)nc3scc(C(=O)NNC(C)=O)n23)cc1`: the IC50 with HCT-116 worked out at 29.9 µM; in the assay with HepG2, 23.7 µM; with MCF7, 11.3 µM; in the assay with HeLa, 18.9 µM; in the assay with PC-3, 34.8 µM.
For `O=C(NCCc1ccccc1)c1csc(NC(=S)Nc2ccc(Cl)cc2)n1` the same measures were 29.7 µM, 11.8 µM, 17.2 µM, 30.4 µM and 33.8 µM.
Consider `CCOC(=O)c1csc2nc(CN3CCN(C)CC3)c(-c3ccc(OC)cc3)n12`, for which the IC50 in the assay on HCT-116 came out at 44.6 µM; in the assay with HepG2 it was 68.4 µM; with MCF7, 32.8 µM; in the assay with HeLa, 35.1 µM; in the assay with PC-3, 69.4 µM.
Consider `CCCC(=O)NNC(=O)c1csc2nc(CN3CCOCC3)c(-c3ccc(Br)cc3)n12`, for which the IC50 worked out at 46.8 µM with HCT-116; 38.4 µM in the assay on HepG2; 35.9 µM with MCF7; 29.2 µM in the assay on HeLa; 52.9 µM with PC-3.
`O=C(NCc1ccccc1)c1csc(NC(=S)Nc2ccc(Cl)cc2)n1`: the concentration for half-maximal inhibition (IC50) was determined as 62.1 µM with HCT-116; 40.3 µM with HepG2; 56.5 µM in the assay on MCF7; 76 µM with HeLa; 51.3 µM with PC-3.
